From a compilation of properties of binary mixtures (doi:10.1021/je500765m)

Experiment: xn = mol fraction of the nth substance listed
Details: 101 kPa, x2 = 0.0138

CCCC[n+]1ccn(C)c1.N#C[C-](C#N)C#N + O
Details | viscosity [mPa·s]
293.15 K | 32.77
298.15 K | 26.47
303.15 K | 21.7
308.15 K | 18.08
313.15 K | 15.3
318.15 K | 13.09
323.15 K | 11.32
338.15 K | 7.748
343.15 K | 6.933
353.15 K | 5.658
358.15 K | 5.155
363.15 K | 4.718
